Key:
5-LO [1] = target: T1, 5-LO (Homo sapiens, UniProt P09917); assay: Test b): heparinised human blood challenged with calcium ionophore A23187, radioimmunoassay of LTB₄; type: cell-based; conditions: read-out: IC₅₀ (LTB₄)
T1 construct: incubating a test compound with heparinised human blood, prior to challenge with the calcium ionophore A23187; endogenous in cells; host or cells: leukocytes in heparinised human whole blood
T1 sequence (P09917 1-674): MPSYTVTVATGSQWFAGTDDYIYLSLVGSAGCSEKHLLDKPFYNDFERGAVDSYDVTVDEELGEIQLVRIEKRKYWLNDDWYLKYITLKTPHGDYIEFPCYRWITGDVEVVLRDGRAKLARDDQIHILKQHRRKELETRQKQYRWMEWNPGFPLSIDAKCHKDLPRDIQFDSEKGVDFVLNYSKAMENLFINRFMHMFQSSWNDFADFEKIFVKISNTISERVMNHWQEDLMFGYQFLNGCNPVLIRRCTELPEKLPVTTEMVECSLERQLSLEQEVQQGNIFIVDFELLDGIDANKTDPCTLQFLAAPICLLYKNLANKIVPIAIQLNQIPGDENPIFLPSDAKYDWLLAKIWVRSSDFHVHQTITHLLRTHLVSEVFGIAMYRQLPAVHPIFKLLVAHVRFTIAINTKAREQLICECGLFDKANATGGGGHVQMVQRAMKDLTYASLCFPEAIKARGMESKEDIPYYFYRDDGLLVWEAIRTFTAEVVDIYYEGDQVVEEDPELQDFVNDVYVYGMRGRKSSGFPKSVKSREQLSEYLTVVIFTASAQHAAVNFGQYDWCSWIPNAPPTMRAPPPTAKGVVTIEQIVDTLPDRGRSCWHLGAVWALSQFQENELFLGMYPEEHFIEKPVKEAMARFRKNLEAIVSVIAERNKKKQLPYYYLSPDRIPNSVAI
Experimental: This test provides a measure of the intrinsic inhibitory properties of a test compound against soluble 5-LO in an extracellular environment. • b) An in vitro assay system involving incubating a test compound with heparinised human blood, prior to challenge with the calcium ionophore A23187 and then indirectly measuring the inhibitory effects on 5-LO by assaying the amount of LTB₄ using specific radioimmunoassays described by Carey and Forder (F. Carey and R.A. Forder, Prostaglandins, Leukotrienes Med., 1986, 22, 57; Prostaglandins, 1984, 28, 666; Brit. J. Pharmacol. 1985, 84, 34P) which involve the use of a protein-LTB₄ conjugate produced using the procedure of Young et alia (Prostaglandins, 1983, 26(4), 605-613). […] This test provides an indication of the effects of a test compound against 5-LO and also cyclooxygenase in the presence of blood cells and proteins.

5-LO [2] = assay: Test g): zymosan-induced liberation of LTB₄ within a subcutaneous air pouch of male rats; type: in vivo; conditions: rat air pouch

Q: Which results are given for CSC1(c2cccc(OCc3ccc4ccccc4c3)c2)CCOCC1 [Example 1, 4-methylthio-4-[3-(naphth-2-ylmethoxy)phenyl]tetrahydropyran]?
A: IC50 (5-LO [1]): 50 nM; oral ED₅₀(LTB₄) (5-LO [2]): 8 mg/kg

From patent EP0462830B1, “Cyclic ether derivatives” (ZENECA LIMITED, priority 1990, dated 1991)
